The Deep4Chem optical property database
Values belong to the compound of their own block, whether it stands above or below them.

Assay: solvent given as SMILES

Structure (SMILES): CC1=C(Cc2ccccc2)C(C)=[N+]2C1=C(C)c1c(C)c(-c3csc(N4CCOCC4)n3)c(C)n1[B-]2(F)F
absorption maximum (in C1CCOC1): 525 nm
absorption maximum (in C1COCCO1): 524 nm
absorption maximum (in CC#N): 517 nm
absorption maximum (in CC(C)O): 518 nm
absorption maximum (in CCO): 516 nm
absorption maximum (in CCOC(C)=O): 523 nm
absorption maximum (in CN(C)C=O): 526 nm
absorption maximum (in CO): 514 nm
absorption maximum (in CS(C)=O): 522 nm
absorption maximum (in Cc1ccccc1): 527 nm
absorption maximum (in ClC(Cl)Cl): 523 nm
absorption maximum (in ClCCl): 522 nm

Structure (SMILES): COc1cc(OC)cc(C2=C(c3cc(OC)c(OC)c(OC)c3)C3=Nc4c(-c5cc(OC)c(OC)c(OC)c5)c(-c5cc(OC)cc(OC)c5)c(-c5ccc(C(C)(C)C)cc5)n4[B-](F)(F)[N+]3=C2c2ccc(C(C)(C)C)cc2)c1
absorption maximum (in Cc1ccccc1): 674 nm

Structure (SMILES): CN1CCN(c2ccc3c4c(cccc24)C(=O)c2ccccc2-3)CC1
absorption maximum (in C1CCCCC1): 428.2 nm
absorption maximum (in C1CCOC1): 446 nm
absorption maximum (in C1COCCO1): 442.8 nm
absorption maximum (in CC1COC(=O)O1): 459 nm
absorption maximum (in CC#N): 453.8 nm
absorption maximum (in CC(C)=O): 449.6 nm
absorption maximum (in CCCCCCCCO): 451 nm
absorption maximum (in CCCCCO): 456.4 nm
absorption maximum (in CCCCO): 454.6 nm
absorption maximum (in CCCO): 455.4 nm
absorption maximum (in CCO): 455.4 nm
absorption maximum (in CCOC(C)=O): 443 nm
absorption maximum (in CN(C)C=O): 454.4 nm
absorption maximum (in CO): 456.4 nm
absorption maximum (in CS(C)=O): 460.8 nm
absorption maximum (in Cc1ccccc1): 443.8 nm
absorption maximum (in ClC(Cl)Cl): 455.4 nm

Structure (SMILES): COC(=O)c1[nH]c(-c2ccc(OC)cc2)c2nnc3ccc(OC)cc3c12
absorption maximum (in ClCCl): 401 nm

Structure (SMILES): Cn1c(=O)c(/N=N/c2ccc(Nc3ccccc3)c(S(=O)(=O)O)c2)c(O)c2ccccc21
absorption maximum (in C1CCOC1): 412 nm
absorption maximum (in CC(C)=O): 407 nm
absorption maximum (in CCOC(C)=O): 411 nm
absorption maximum (in CO): 400 nm
absorption maximum (in CS(C)=O): 396 nm
absorption maximum (in Cc1ccccc1): 414 nm
absorption maximum (in ClCCl): 415 nm
absorption maximum (in O): 385 nm

Structure (SMILES): Cc1cc(-n2c3ccccc3c3cc4c(cc32)C2c3ccccc3C4c3ccccc32)ccc1-c1nc(-c2ccccc2)nc(-c2ccccc2)n1
absorption maximum (in Cc1ccccc1): 367 nm

Structure (SMILES): Clc1cnc2nn3ccccc3c2c1
absorption maximum (in C1CCOC1): 373 nm

Structure (SMILES): CCCCC(CC)COc1cc(OCC(CC)CCCC)c2c#cc3ccc4c(c3)c3cc(c#cc5cc(c#cc6ccc7c(c6)c6cc(c#cc1c2)ccc6n7CC(CC)CCCC)c(C(CCCC)OCCC)cc5C(CCCC)OCCC)ccc3n4CC(CC)CCCC (configuration not stated)
absorption maximum (in ClCCl): 340 nm

Structure (SMILES): Nc1ccc2c(c1)C(=O)c1ccccc1-2
absorption maximum (in C1CCCCC1): 455 nm
absorption maximum (in CC#N): 481 nm
absorption maximum (in CCO): 488 nm
absorption maximum (in c1ccccc1): 469 nm

Structure (SMILES): CN(C)c1ccc2nc(-c3ccc(C(=O)O)cc3)sc2c1
absorption maximum (in C1CCCCC1): 387 nm
absorption maximum (in CC#N): 390 nm
absorption maximum (in CC(C)O): 374 nm
absorption maximum (in CO): 377 nm
absorption maximum (in CS(C)=O): 400 nm
absorption maximum (in ClC(Cl)Cl): 400 nm
absorption maximum (in c1ccccc1): 394 nm

Structure (SMILES): CN1CCN(CCCN2c3ccccc3Sc3ccc(Cl)cc32)CC1
absorption maximum (in CC#N): 314 nm
absorption maximum (in CO): 313 nm
absorption maximum (in O): 309 nm

Structure (SMILES): Nc1ccccc1
absorption maximum (in C1CCCCC1): 283.13 nm

Structure (SMILES): CCOC(=O)CN1C(=O)C2=C(c3ccc(N4CCCCC4)cc3)N(CC(=O)OCC)C(=O)C2=C1c1ccc(C#N)cc1
absorption maximum (in CC#N): 524 nm
absorption maximum (in CS(C)=O): 541 nm
absorption maximum (in Cc1ccccc1): 527 nm

Structure (SMILES): COc1ccc(C#Cc2nc3ccccc3nc2-c2cn(C)c3ccccc23)cc1
absorption maximum (in C1CCOC1): 408 nm
absorption maximum (in CC#N): 407 nm
absorption maximum (in CC(C)=O): 408 nm
absorption maximum (in CC(C)O): 415 nm
absorption maximum (in CCO): 415 nm
absorption maximum (in CCOC(C)=O): 405 nm
absorption maximum (in CO): 415 nm
absorption maximum (in Cc1ccccc1): 407 nm
absorption maximum (in ClCCl): 408 nm

Structure (SMILES): C(S/C=C/c1ccc(-c2ccc(/C=C/SC=C3CCCC3)cc2)cc1)=C1CCCC1
absorption maximum (in ClCCl): 352 nm

Structure (SMILES): CCCCCCCCN1c2ccc(C#Cc3ccc(F)cc3)cc2Sc2cc(C=O)ccc21
absorption maximum (in C1CCOC1): 378 nm
absorption maximum (in CC#N): 380.01 nm
absorption maximum (in CCCCCC): 376 nm
absorption maximum (in CO): 350 nm
absorption maximum (in CS(C)=O): 388 nm
absorption maximum (in Cc1ccccc1): 381.99 nm
absorption maximum (in ClC(Cl)Cl): 391.99 nm

Structure (SMILES): CC(C)(C)c1ccc2c(c1)c1cc(C(C)(C)C)ccc1n2-c1cc(-n2c3ccc(C(C)(C)C)cc3c3cc(C(C)(C)C)ccc32)c(-n2c3ccc(C(C)(C)C)cc3c3cc(C(C)(C)C)ccc32)c(C#N)c1-n1c2ccc(C(C)(C)C)cc2c2cc(C(C)(C)C)ccc21
absorption maximum (in Cc1ccccc1): 422.84 nm

Structure (SMILES): CC1(C)c2ccccc2N(c2ccc3c(ccc4nc5ccc6cc(N7c8ccccc8C(C)(C)c8ccccc87)ccc6c5nc43)c2)c2ccccc21
absorption maximum (in C1CCCCC1): 413 nm
absorption maximum (in C1CCOC1): 416 nm
absorption maximum (in CN(C)C=O): 418 nm
absorption maximum (in Cc1ccccc1): 416 nm
absorption maximum (in ClCCl): 416 nm

Structure (SMILES): COc1cc(-c2cc(N3CCCCC3)c(C#N)c3c2-c2cccc4cccc-3c24)cc(OC)c1OC
absorption maximum (in O): 430 nm

Structure (SMILES): FC(F)(F)c1ccc(/C2=C3N=C(C(c4ccccc4)=C/3c3ccccc3)/C(c3ccc(C(F)(F)F)cc3)=c3\[nH]/c(c(-c4ccccc4)c3-c3ccccc3)=C(/c3ccc(C(F)(F)F)cc3)C3=N/C(=C(/c4ccc(C(F)(F)F)cc4)c4[nH]c2c(-c2ccccc2)c4-c2ccccc2)C(c2ccccc2)=C3c2ccccc2)cc1
absorption maximum (in ClCCl): 708 nm

Structure (SMILES): CCN(CC)c1ccc2nc3c4ccccc4c(=O)cc-3oc2c1
absorption maximum (in C1COCCO1): 519 nm
absorption maximum (in CC#N): 535 nm
absorption maximum (in CC(C)=O): 533 nm
absorption maximum (in CCCCCC): 508 nm
absorption maximum (in CCO): 549 nm
absorption maximum (in CCOC(C)=O): 524 nm
absorption maximum (in CO): 553 nm
absorption maximum (in CS(C)=O): 552 nm
absorption maximum (in Cc1ccccc1): 524 nm
absorption maximum (in ClCCl): 539 nm

Other lines, results leading:

absorption maximum (in ClCCl): 330 nm
Structure (SMILES): C(#Cc1ncc(-c2ccccc2)o1)c1cccnc1

absorption maximum (in CC#N): 520 nm
Structure (SMILES): N#CC(/N=C/c1c(O)ccc2ccccc12)=C(C#N)/N=C/c1c(O)ccc2ccccc12

absorption maximum (in CC#N): 445 nm
Structure (SMILES): Cn1ccc(-c2nc3ccccc3nc2/C=C/N2CCCC2)c1

absorption maximum (in ClCCl): 538 nm
Structure (SMILES): CC(C)(C)OC(=O)/C=C/C1=CC2=C(c3ccccc3)c3cccn3[B-](F)(F)[N+]2=C1

absorption maximum (in CC#N): 671 nm
Structure (SMILES): CN1/C(=C\C=C\C2=C3C=CC(c4ccccc4)=[N+]3[B-](F)(F)n3c2ccc3-c2ccccc2)C(C)(C)c2ccccc21

absorption maximum (in CCO): 401 nm
absorption maximum (in ClC(Cl)Cl): 403 nm
Structure (SMILES): COc1ccc2c(-c3nc(-c4cccc(C)c4)no3)cc(=O)oc2c1

absorption maximum (in ClC(Cl)Cl): 754 nm
Structure (SMILES): CCCCCCCCOc1ccc(-c2c3c4n(c(-c5ccc(OCCCCCCCC)cc5)c3c3n2[B-](F)(F)[n+]2c(ccc5cc(C(C)(C)C)ccc52)C=3C#N)[B-](F)(F)[n+]2c(ccc3cc(C(C)(C)C)ccc32)C=4C#N)cc1

absorption maximum (in ClCCl): 322 nm
Structure (SMILES): CCOC(=O)c1c(-c2c(Cl)c3ccccc3oc2=O)nn(-c2ccccc2)c1C(=O)OCC

absorption maximum (in c1cc(-c2cccc(-n3c4ccccc4c4ccccc43)c2)cc(-n2c3ccccc3c3ccccc32)c1): 371.92 nm
Structure (SMILES): Cc1cc(-c2nc(-c3ccccc3)nc(-c3ccccc3)n2)ccc1-c1ccc2c(c1)C1(c3ccccc3-c3ccccc31)c1ccccc1N2c1ccccc1

absorption maximum (in CCO): 564 nm
absorption maximum (in ClCCl): 565 nm
Structure (SMILES): Cc1ccccc1-c1c2ccc(=[N+]3CCCCC3)cc-2oc2cc(N3CCCCC3)ccc12

absorption maximum (in ClCCl): 536 nm
Structure (SMILES): CCOCCOCCOC(=O)/C=C/C1=CC2=C(c3c(C)cc(C)cc3C)c3cccn3[B-](F)(F)[N+]2=C1

absorption maximum (in C1CCOC1): 382 nm
Structure (SMILES): CCC1(CC)c2ccccc2-c2c1c1c(c3c2C(CC)(CC)c2cc(/C=C/c4cccs4)ccc2-3)C(CC)(CC)c2ccccc2-1

absorption maximum (in C1CCOC1): 685 nm
Structure (SMILES): CCc1nc2c(nc1CC)C(c1ccccc1)=[N+]1C2=Nc2c3nc(CC)c(CC)nc3c(-c3ccccc3)n2[B-]1(F)F

absorption maximum (in c1ccccc1): 404 nm
Structure (SMILES): O=c1oc2ccc3ccccc3c2nc1-c1ccc(Cl)cc1

absorption maximum (in ClCCl): 528 nm
Structure (SMILES): F[B-]1(F)N2C=CN=CC2=[N+]2[N+]1=Cc1c(-c3ccccc3)cc(-c3ccccc3)n1[B-]2(F)F

absorption maximum (in ClC(Cl)Cl): 404 nm
Structure (SMILES): C[Si](C)(C)C#C[Si](c1c2ccccc2cc2ccccc12)(c1c2ccccc2cc2ccccc12)c1c2ccccc2cc2ccccc12

absorption maximum (in CCCCCC): 609 nm
absorption maximum (in CCCCCCCCO): 613 nm
absorption maximum (in CCOC(C)=O): 607 nm
absorption maximum (in CN(C)C=O): 612 nm
Structure (SMILES): CC1=CC(C)=[N+]2C1=Cc1c3ccccc3c(C#Cc3ccc(F)cc3)n1[B-]2(F)F

absorption maximum (in ClCCl): 704 nm
Structure (SMILES): COc1c2ccccc2c(OC)c2c(C#Cc3ccccc3)c3cc4ccccc4cc3c(C#Cc3ccccc3)c12

absorption maximum (in ClCCl): 726 nm
Structure (SMILES): CC(C)(C)c1cc(-c2c3cc(c(-c4cc(C(C)(C)C)cc(C(C)(C)C)c4)c4ccc([nH]4)c(-c4ccc([N+](=O)[O-])cc4)c4nc(c(-c5ccc([N+](=O)[O-])cc5)c5ccc2[nH]5)C=C4)N=C3)cc(C(C)(C)C)c1

absorption maximum (in C1CCOC1): 738 nm
Structure (SMILES): COc1ccccc1C1=[N+]2C(=Cc3c4cc5ccccc5cc4c(-c4ccccc4OC)n3[B-]2(F)F)c2cc3ccccc3cc21

absorption maximum (in ClCCl): 608 nm
Structure (SMILES): CCOC(=O)COc1ccc(/C=C/C2=C3C(C)=CC(C)=[N+]3[B-](F)(F)n3c2c2ccccc2c3-c2[nH]c(C)cc2C)cc1

absorption maximum (in C1COCCO1): 370 nm
Structure (SMILES): COC(=O)c1ccc(/C=C2\N=C(c3ccccc3)OC2=O)cc1

absorption maximum (in C1CCCCC1): 327 nm
absorption maximum (in CC#N): 327 nm
absorption maximum (in CCO): 329 nm
absorption maximum (in ClCCl): 329 nm
Structure (SMILES): O=P1(c2ccccc2)c2ccccc2-c2sc3ccccc3c21 (configuration not stated)

absorption maximum (in ClCCl): 361 nm
Structure (SMILES): O=C1c2ccccc2C2=Nc3cccc[n+]3[B-](F)(F)N12

absorption maximum (in CCO): 381 nm
Structure (SMILES): COc1cc2c(cc1F)c(=O)c1cc(F)c(OC)cc1n2Cc1ccccc1

absorption maximum (in ClCCl): 329 nm
Structure (SMILES): O=Cc1ccc2c(c1)c1ccccc1n2-c1ccc(-c2ccc(-n3c4ccccc4c4cc(C=O)ccc43)cc2)cc1

absorption maximum (in ClCCl): 410 nm
Structure (SMILES): O=C(O)C1=C(C(=O)O)C2=C[C@H]3c4ccccc4[C@]2(S1)c1ccccc13

absorption maximum (in ClCCl): 574 nm
Structure (SMILES): CC1=C(c2ccc(N(C)C)cc2)C(C)=[N+]2C1=C(c1c(-c3ccccn3)nc3ccccn13)c1c(C)c(-c3ccc(N(C)C)cc3)c(C)n1[B-]2(F)F

absorption maximum (in ClCCl): 359 nm
Structure (SMILES): COc1ccc(/C=C/c2cc(/C=C/c3ccc(OC)cc3)ncn2)cc1
